ChEMBL document CHEMBL1126447 (Bioorg Med Chem Lett, 1992)

Experiments:
Acetylcholinesterase [1] = target: Acetylcholinesterase (Homo sapiens, UniProt P22303)
Description: Inhibition of acetylcholinesterase (AChE) of human red blood cell (type XIII) by modified radiometric AChE assay

Acetylcholinesterase [2] = target: Acetylcholinesterase (Electrophorus electricus, UniProt O42275)
Description: Inhibition of acetylcholinesterase (AChE) in electric eel (type V-S) by modified radiometric assay

Butyrylcholinesterase = Butyrylcholinesterase (Equus caballus, UniProt Q9N1N9)
Butyrylcholinesterase, sequence (Q9N1N9 whole entry): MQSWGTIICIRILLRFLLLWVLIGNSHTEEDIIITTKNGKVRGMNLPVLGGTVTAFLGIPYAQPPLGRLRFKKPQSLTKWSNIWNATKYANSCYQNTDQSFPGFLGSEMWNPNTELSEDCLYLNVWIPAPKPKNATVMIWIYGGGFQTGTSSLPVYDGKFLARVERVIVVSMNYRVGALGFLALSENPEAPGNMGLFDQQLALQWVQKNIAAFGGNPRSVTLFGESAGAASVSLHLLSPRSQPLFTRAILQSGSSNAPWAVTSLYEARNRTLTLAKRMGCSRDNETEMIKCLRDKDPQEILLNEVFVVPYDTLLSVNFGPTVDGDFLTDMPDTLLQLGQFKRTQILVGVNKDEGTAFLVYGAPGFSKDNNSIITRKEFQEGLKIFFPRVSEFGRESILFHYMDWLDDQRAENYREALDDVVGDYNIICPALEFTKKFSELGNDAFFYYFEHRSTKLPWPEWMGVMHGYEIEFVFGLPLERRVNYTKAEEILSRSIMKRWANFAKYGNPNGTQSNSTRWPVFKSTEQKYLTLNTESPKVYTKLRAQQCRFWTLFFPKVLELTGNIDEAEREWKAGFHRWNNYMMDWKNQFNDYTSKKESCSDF
Description: Inhibition of (BChE) Butyrylcholinesterase of horse serum

Acetylcholinesterase (Electrophorus electricus, UniProt O42275), sequence (O42275 whole entry): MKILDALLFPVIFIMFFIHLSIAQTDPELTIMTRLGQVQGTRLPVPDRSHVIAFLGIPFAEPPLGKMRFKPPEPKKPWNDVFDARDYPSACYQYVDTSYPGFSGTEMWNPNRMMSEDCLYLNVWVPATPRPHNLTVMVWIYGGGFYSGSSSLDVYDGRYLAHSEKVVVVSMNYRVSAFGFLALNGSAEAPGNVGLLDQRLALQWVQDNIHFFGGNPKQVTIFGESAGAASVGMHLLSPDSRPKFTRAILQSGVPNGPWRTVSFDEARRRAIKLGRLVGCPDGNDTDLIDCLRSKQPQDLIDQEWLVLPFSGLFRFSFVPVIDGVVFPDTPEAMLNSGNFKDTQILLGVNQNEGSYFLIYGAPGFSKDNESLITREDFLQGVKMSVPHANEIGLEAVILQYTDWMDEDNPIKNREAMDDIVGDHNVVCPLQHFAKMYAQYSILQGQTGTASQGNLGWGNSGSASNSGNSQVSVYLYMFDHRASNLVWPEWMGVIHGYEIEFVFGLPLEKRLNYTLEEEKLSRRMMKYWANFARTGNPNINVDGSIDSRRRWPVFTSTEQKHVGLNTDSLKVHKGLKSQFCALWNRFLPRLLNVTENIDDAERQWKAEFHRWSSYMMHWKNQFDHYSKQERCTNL
Acetylcholinesterase (Homo sapiens, UniProt P22303), sequence (P22303 whole entry): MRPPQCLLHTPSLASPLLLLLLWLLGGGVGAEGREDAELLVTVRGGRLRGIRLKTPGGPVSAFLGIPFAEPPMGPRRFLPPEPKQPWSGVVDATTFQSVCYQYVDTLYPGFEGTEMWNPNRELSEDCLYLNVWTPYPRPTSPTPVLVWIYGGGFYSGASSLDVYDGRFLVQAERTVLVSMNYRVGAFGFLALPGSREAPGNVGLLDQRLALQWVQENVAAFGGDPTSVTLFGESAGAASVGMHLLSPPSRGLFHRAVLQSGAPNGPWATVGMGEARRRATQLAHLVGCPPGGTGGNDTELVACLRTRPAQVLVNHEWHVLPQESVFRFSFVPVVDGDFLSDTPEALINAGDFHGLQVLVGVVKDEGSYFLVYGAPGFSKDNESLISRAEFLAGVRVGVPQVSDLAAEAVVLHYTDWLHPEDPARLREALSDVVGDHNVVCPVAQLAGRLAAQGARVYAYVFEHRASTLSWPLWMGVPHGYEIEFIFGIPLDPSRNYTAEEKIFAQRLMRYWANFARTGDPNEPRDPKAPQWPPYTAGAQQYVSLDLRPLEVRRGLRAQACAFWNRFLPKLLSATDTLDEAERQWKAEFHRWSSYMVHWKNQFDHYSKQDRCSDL

Row | SMILES | IC50 (Acetylcholinesterase [1]) [nM] | IC50 (Acetylcholinesterase [2]) [nM] | IC50 (Butyrylcholinesterase) [nM]
1 | Nc1c2c(nc3cc(Cl)ccc13)C1CCC2C1 (centres undefined) | 4.5 | 2.33 | 21.7
2 | Nc1c2c(nc3c(Cl)cccc13)C1CCC2C1 (centres undefined) | 84.3 | 493 | 207
3 | Nc1c2c(nc3ccc(Cl)cc13)CCCC2 | 743 | 40 | 0.7
4 | Nc1c2c(nc3cccc(Cl)c13)C1CCC2C1 (centres undefined) | 42.2 | 6.52 | 15.3
5 | Nc1c2c(nc3cccc(Cl)c13)CCCC2 | 9.4 | 4.43 | 12.7
6 | CNC(=O)Oc1ccc2c(c1)[C@]1(C)CCN(C)[C@@H]1N2C [PHYSOSTIGMINE] | – | – | 4670
7 | Nc1c2c(nc3cc(Cl)ccc13)CCCC2 | – | 2.87 | –
8 | Nc1c2c(nc3ccccc13)CCCC2O (centres undefined) [VELNACRINE] | – | 59.8 | 53.3
9 | Nc1c2c(nc3c(Cl)cccc13)CCCC2 | 68.9 | 36 | 45
10 | Nc1c2c(nc3ccccc13)C1CCC2C1 (centres undefined) | – | 11.7 | 1.3
